Experimental data reported in US8927544B2, “Benzofuran-2-sulfonamides derivatives as chemokine receptor modulators” (Allergan, Inc., priority 2012, dated 2015).
Where two headings read alike, the source gives them in different places.

Target: T1, CCR2 (Homo sapiens, UniProt P41597)
T1 construct: expressed in transfected cells
Test: compound-induced calcium activity on the FLIPR Tetra in HEK-Gqi5 cells stably expressing CCR2
Assay type: cell-based
Procedure: HEK-Gqi5 cells stably expressing CCR2 were cultured in DMEM high glucose, 10% FBS, 1% PSA, 400 μg/ml geneticin and 50 μg/ml hygromycin. Appropriate positive control chemokines (MCP-1, MIP1A or RANTES) was used as the positive control agonist for screening compound-induced calcium activity assayed on the FLIPR^Tetra. The drug plates were prepared in 384-well microplates using the EP3 and the MultiPROBE robotic liquid handling systems. Compounds were synthesized and tested for CCR2 activity.

[1] = HEK-Gqi5 cells stably expressing CCR2, calcium activity, FLIPR Tetra
[2] = HEK-Gqi5 cells stably expressing CCR2, calcium activity, FLIPR Tetra, read-out: CCR2 IC50

T1 sequence (P41597 whole entry, species assumed): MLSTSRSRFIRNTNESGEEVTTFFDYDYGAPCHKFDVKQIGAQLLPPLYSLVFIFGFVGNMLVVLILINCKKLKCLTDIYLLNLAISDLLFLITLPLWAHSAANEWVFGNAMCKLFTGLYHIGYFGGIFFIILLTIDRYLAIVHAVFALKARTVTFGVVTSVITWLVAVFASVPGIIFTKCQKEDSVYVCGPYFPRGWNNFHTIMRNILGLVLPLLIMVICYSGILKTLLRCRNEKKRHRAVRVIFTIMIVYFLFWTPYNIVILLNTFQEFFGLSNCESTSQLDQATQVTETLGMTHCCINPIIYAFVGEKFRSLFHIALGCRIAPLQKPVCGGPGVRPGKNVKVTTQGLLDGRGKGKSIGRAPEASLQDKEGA

Compound | CCR2 ANTAGONISM (%) [1] [%] | IC50 [2] [nM] | IC50 [nM]
COc1ccc(Cl)cc1NS(=O)(=O)c1cc2ccccc2o1 [Compound 1, N-(5-Chloro-2-methoxyphenyl)benzofuran-2-sulfonamide] | 97 | 512 | –
Cc1ccc(Cl)cc1NS(=O)(=O)c1cc2ccccc2o1 [Compound 2, N-(5-Chloro-2-methylphenyl)-1-benzofuran-2-sulfonamide] | 84 | 359 | –
O=S(=O)(Nc1cc(Cl)ccc1OC(F)(F)F)c1cc2ccccc2o1 [Compound 3, N-[5-Chloro-2-(trifluoromethoxy)phenyl]-1-benzofuran-2-sulfonamide] | 95 | 195 | –
COC(=O)c1ccc(Cl)cc1NS(=O)(=O)c1cc2ccccc2o1 [Compound 4, Methyl 2-[(1-benzofuran-2-ylsulfonyl)amino]-4-chlorobenzoate] | 95 | 1380 | –
CCOc1ccc(Cl)cc1NS(=O)(=O)c1cc2ccccc2o1 [Compound 5, N-(5-Chloro-2-ethoxyphenyl)-1-benzofuran-2-sulfonamide] | 73 | 1660 | –
C#Cc1ccc(Cl)cc1NS(=O)(=O)c1cc2ccccc2o1 [Compound 6, N-(5-Chloro-2-ethynylphenyl)-1-benzofuran-2-sulfonamide] | 93 | 117 | –
O=C1CCN(C(=O)c2ccc(Cl)cc2NS(=O)(=O)c2cc3ccccc3o2)CC1 [Compound 7, N-{5-Chloro-2-[(4-oxopiperidin-1-yl)carbonyl]phenyl}-1-benzofuran-2-sulfonamide] | 93 | – | 110
O=C(c1ccc(Cl)cc1NS(=O)(=O)c1cc2ccccc2o1)N1CCOCC1 [Compound 8, N-[5-Chloro-2-(morpholin-4-ylcarbonyl)phenyl]-1-benzofuran-2-sulfonamide] | 84 | 569 | –
Cc1ncccc1Oc1ccc(Cl)cc1NS(=O)(=O)c1cc2ccccc2o1 [Compound 9, N-{5-Chloro-2-[(2-methylpyridin-3-yl)oxy]phenyl}-1-benzofuran-2-sulfonamide] | 96 | 365 | –
COC(=O)c1ccccc1Oc1ccc(Cl)cc1NS(=O)(=O)c1cc2ccccc2o1 [Compound 10, Methyl 2-{2-[(1-benzofuran-2-ylsulfonyl)amino]-4-chlorophenoxy}benzoate] | 98 | 1020 | –
O=C(O)c1ccccc1Oc1ccc(Cl)cc1NS(=O)(=O)c1cc2ccccc2o1 [Compound 11, 2-{2-[(1-Benzofuran-2-ylsulfonyl)amino]-4-chlorophenoxy}benzoic acid] | 97 | 60 | –
O=S(=O)(Nc1cc(Cl)ccc1Sc1ccccc1)c1cc2ccccc2o1 [Compound 12, N-[5-Chloro-2-(phenylsulfanyl)phenyl]-1-benzofuran-2-sulfonamide] | 90 | 124 | –
O=S(=O)(Nc1cc(Cl)ccc1S(=O)(=O)c1ccccc1)c1cc2ccccc2o1 [Compound 13, N-[5-Chloro-2-(phenylsulfonyl)phenyl]-1-benzofuran-2-sulfonamide] | 78 | 1970 | –
O=S(=O)(Nc1cc(Cl)ccc1[S+]([O-])c1ccccc1)c1cc2ccccc2o1 (stereo not drawn) [Compound 14, N-[5-Chloro-2-(phenylsulfinyl)phenyl]-1-benzofuran-2-sulfonamide] | 105 | 6 | –
O=C(Nc1ccccc1)c1ccc(Cl)cc1NS(=O)(=O)c1cc2ccccc2o1 [Compound 15, 2-[(1-Benzofuran-2-ylsulfonyl)amino]-4-chloro-N-phenylbenzamide] | 95 | 328 | –
N#Cc1ccc(Cl)cc1NS(=O)(=O)c1cc2ccccc2o1 [Compound 16, N-(5-Chloro-2-cyanophenyl)-1-benzofuran-2-sulfonamide] | 102 | 409 | –
O=C(Cc1ccccc1)c1ccc(Cl)cc1NS(=O)(=O)c1cc2ccccc2o1 [Compound 17, N-[5-Chloro-2-(phenylacetyl)phenyl]-1-benzofuran-2-sulfonamide] | 79 | 183 | –
CO/N=C(/Cc1ccccc1)c1ccc(Cl)cc1NS(=O)(=O)c1cc2ccccc2o1 [Compound 18, N-{5-Chloro-2-[(1Z)—N-methoxy-2-phenylethanimidoyl]phenyl}-1-benzofuran-2-sulfonamide] | 76 | – | –
O=S(=O)(Nc1cc(Cl)ccc1/C(Cc1ccccc1)=N\O)c1cc2ccccc2o1 [Compound 19, N-{5-Chloro-2-[(1Z)—N-hydroxy-2-phenylethanimidoyl]phenyl}-1-benzofuran-2-sulfonamide] | 72 | – | –
O=S(=O)(Nc1cc(Cl)ccc1OCc1ccccc1)c1cc2ccccc2o1 [Compound 20, N-[2-(Benzyloxy)-5-chlorophenyl]-1-benzofuran-2-sulfonamide] | 87 | 1630 | –
O=S(=O)(Nc1cc(Cl)ccc1C#Cc1ccccc1)c1cc2ccccc2o1 [Compound 21, N-[5-Chloro-2-(phenylethynyl)phenyl]-1-benzofuran-2-sulfonamide] | 30 | – | –
O=S(=O)(Nc1cc(Cl)ccc1CCc1ccccc1)c1cc2ccccc2o1 [Compound 22, N-[5-Chloro-2-(2-phenylethyl)phenyl]-1-benzofuran-2-sulfonamide] | 84 | – | –
Cc1ccc(Sc2ccccc2)c(NS(=O)(=O)c2cc3ccccc3o2)c1 [Compound 24, N-[5-Methyl-2-(phenylsulfanyl)phenyl]-1-benzofuran-2-sulfonamide] | 41 | – | –
Cc1ccc([S+]([O-])c2ccccc2)c(NS(=O)(=O)c2cc3ccccc3o2)c1 (stereo not drawn) [Compound 25, N-[5-Methyl-2-(phenylsulfinyl)phenyl]-1-benzofuran-2-sulfonamide] | 92 | 2880 | –
Cc1ccc(S(=O)(=O)c2ccccc2)c(NS(=O)(=O)c2cc3ccccc3o2)c1 [Compound 26, N-[5-Methyl-2-(phenylsulfonyl)phenyl]-1-benzofuran-2-sulfonamide] | 38 | – | –
O=S(=O)(Nc1cc(F)ccc1Sc1ccccc1)c1cc2ccccc2o1 [Compound 27, N-[5-Fluoro-2-(phenylsulfanyl)phenyl]-1-benzofuran-2-sulfonamide] | 74 | – | –
O=S(=O)(Nc1cc(F)ccc1[S+]([O-])c1ccccc1)c1cc2ccccc2o1 (stereo not drawn) [Compound 28, N-[5-Fluoro-2-(phenylsulfinyl)phenyl]-1-benzofuran-2-sulfonamide] | 91 | 317 | –
O=S(=O)(Nc1cc(F)ccc1S(=O)(=O)c1ccccc1)c1cc2ccccc2o1 [Compound 29, N-[5-Fluoro-2-(phenylsulfonyl)phenyl]-1-benzofuran-2-sulfonamide] | 82 | 2620 | –
O=C(O)c1ccccc1COc1ccc(Cl)cc1NS(=O)(=O)c1cc2ccccc2o1 [Compound 31, 2-({2-[(1-Benzofuran-2-ylsulfonyl)amino]-4-chlorophenoxy}methyl)benzoic Acid] | 99 | 27 | –
